Publication PMC6222789, “CF3-Substituted Mollugin 2-(4-Morpholinyl)-ethyl ester as a Potential Anti-inflammatory Agent with Improved Aqueous Solubility and Metabolic Stability” (Molecules : A Journal of Synthetic Chemistry and Natural …, 2018)
Where two headings read alike, the source gives them in different places.

How the values were obtained:
[1] = Plasma stability, rat plasma; type: in vitro ADME; settings: for Plasma Stability (% Remain, 2 h) Rat: 37 °C, 1 μM
Description: (§1) The plasma stability assay was performed by incubation of human or rat plasma with a test compound in a final concentration of 1 μM for 120 min at 37 °C. The incubation was terminated by addition of 40 μL of ice-cold acetonitrile and vortexing for 5 min. The precipitated proteins were removed by centrifugation at 14,000× g for 5 min at 4 °C. Aliquots of the supernatant were injected onto a Shimadzu Nexera XR LC system. Percentages of the parent compound remaining were calculated by comparing peak areas using the Xcalibur software (version 1.6.1, Waltham, MA, USA).

[2] = Metabolic stability, human liver microsomes; type: in vitro ADME; settings: 1 μM
Description: (§2) Pooled human liver microsomes (150 donor) and dog, rat, mouse liver microsomes were obtained from BD Gentest Co. (Woburn, MA, USA). NADPH regeneration system was obtained from Promega. S-Mephenytoin, 4-hydroxymephenytoin, and 1’-hydroxymidazolam were purchased from Ultrafine Chemical Co. (Manchester, UK). All other chemicals and solvents were of the highest grade available. The metabolic stability assay was performed by incubation of human or selected animal liver microsomes (most often dog, rat and mouse), at 37 °C with a test compound at a final concentration of 1 μM, in the presence of 0.5 mg/mL microsomal protein and NADPH regeneration system, in a total volume of 100 μL of 100 mM phosphate buffer, pH 7.4. The incubation was started by the addition of NADPH regeneration system and terminated with 40 μL of ice-cold acetonitrile at 0 and 30 min. Precipitated proteins were removed by centrifugation at 10,000× g for 5 min at 4 °C. Aliquots of the supernatant were injected onto an LC-MS/MS system. Incubations terminated prior to the addition of NADPH regeneration system (time point 0 min) were used as standards, defined as 100%. Percent of the parent compound remaining was calculated by comparing peak area.

[3] = Metabolic stability, dog liver microsomes; type: in vitro ADME; settings: for Metabolic Stability (% Remain, 30 min) Dog: 1 μM
Description: as §2

[4] = Metabolic stability, mouse liver microsomes; type: in vitro ADME; settings: for Metabolic Stability (% Remain, 30 min) Mouse: 1 μM
Description: as §2

[5] = molecular target: T1, hERG channel (Homo sapiens, UniProt Q12809); experiment: hERG channel binding assay (fluorescence polarization)
T1 construct: purchased Invitrogen PV5365
Description: hERG channel binding assay was performed using Invitrogen’s hERG Fluorescence Polarization Assay kit (PV5365) with Synergy Neo plate reader (BioTek, Winooski, VT, USA). The binding assay was carried out according to the kit manufacturer’s instructions.

[6] = tested on: TNF-α-induced adhesion of U937 monocytic cells to HT-29 cells; experiment: TNF-α-induced colonic epithelial cell adhesion assay; type: cell-based, human
Description: (§3) Synthesized mollugin derivatives were subjected to the colonic epithelial cell adhesion assay, which mimics the initial stage of colon inflammation. The inhibition of TNF-α-induced or IL-6-induced adhesion of U937 monocytic cells to HT-29 cells in 10 μM solution of synthesized molecules was measured, and the results are summarized in Table 1 and Table 2. Mesalazine (2), a commercially available medication for the treatment of IBD, and mollugin were chosen as assay positive controls.
(§4) HT-29 human colonic epithelial cells and U937 human pre-monocytic cells were grown in RPMI 1640 medium supplemented with 10% FBS, 100 IU/mL penicillin, and 100 µg/mL streptomycin in a humidified incubator under 5% CO2/95% air.
(§5) U937 monocytic cell adhesion to colonic epithelial cells was evaluated using human U937 pre-monocytic cells, which were prelabeled with 2′,7′-bis(2-carboxyethyl)-5(6)-carboxyfluorescein acetoxymethyl ester (BCECF/AM, 10 μg/mL) for 1 h at 37 °C. HT-29 cells cultured in 24-well plates were pretreated with test compound, 5-ASA, or tofacitinib for 1 h prior to incubation with TNF-α (10 ng/mL) and IL-6 (5 ng/mL) for an additional 3 h. Cells were then co-incubated with BCECF/AM-prelabeled U937 cells (1 × 10^6 cells/well) for 30 min at 37 °C. Non-adhering U937 cells were removed, and the HT-29 cells and adherent U937 cells were washed twice with PBS. Images were captured and processed with a Nikon ECLIPSE TE2000-U microscope and NIS-Elements F software (Nikon, Tokyo, Japan). For quantitative analysis, other sets of cells were lysed in 0.1% Triton X-100 in Tris (0.1 M), and the fluorescence was measured using a fluorescence-detecting microplate reader (Promega , Madison, WI, USA) at […]. Experiments were performed in triplicate and repeated at least three times independently.

[7] = tested on: IL-6-induced adhesion of U937 monocytic cells to HT-29 cells; experiment: IL-6-induced colonic epithelial cell adhesion assay; type: cell-based, human
Description: as §3, §4, §5

[8] = Plasma stability, human plasma; type: in vitro ADME; settings: 37 °C, 1 μM
Description: as §1

[9] = Metabolic stability, rat liver microsomes; type: in vitro ADME; settings: for Metabolic Stability (% Remain, 30 min) Rat: 1 μM
Description: as §2

[10] = tested on: TNF-α-induced adhesion of U937 monocytic cells to HT-29 cells; design: method as in PMID 19765578; settings: cell adhesion assay and IBD animal model; cited from earlier work
[11] = tested on: Serum Amyloid A (SAA); experiment: Serum SAA level in DSS-induced colitis mouse model (ELISA); type: in vivo; settings: 4% DSS-induced mouse model; mesalazine 20 mM; ELISA
Description: The level of Serum Amyloid A (SAA) was measured using a mouse SAA ELISA kit according to the manufacturer’s instructions (E-90SAA, Immunology Consultants Laboratory, Inc., Portland, OR, USA). All samples were assayed in duplicate. The concentrations of SAA were determined by comparison to serial dilutions of purified SAA calibrator.
Figure 2 Analysis of mouse serum amyloid A (SAA) level. Effect of 6d on the level of SAA in the 4% dextran sulfate sodium (DSS)-induced mouse model. The level of SAA in serum was determined by ELISA. The control mice received water + vehicle (water), and the treated groups received 4% DSS + vehicle or DSS with mesalazine (20 mM), 6d (10 μM), or 15c (10 μM). TEXT PRINTED IN THE PICTURE: vehecle: mSS assay (ng/ml): 252.08 | vehecle: mSS assay (ng/ml): 732.93 (4% DSS) | 2: mSS assay (ng/ml): 788.86 (4% DSS) | 6d: mSS assay (ng/ml): 295.77 (4% DSS) | 15c: mSS assay (ng/ml): 300.95 (4% DSS)

[12] = Homo sapiens, Epithelial cell, U937 adhesion to HT-29 cells, TNF-α-induced
[13] = Homo sapiens, Epithelial cell, U937 adhesion to HT-29 cells, IL-6-induced
[14] = human, Invitrogen hERG Fluorescence Polarization Assay kit (PV5365)

T1 sequence (Q12809 whole entry): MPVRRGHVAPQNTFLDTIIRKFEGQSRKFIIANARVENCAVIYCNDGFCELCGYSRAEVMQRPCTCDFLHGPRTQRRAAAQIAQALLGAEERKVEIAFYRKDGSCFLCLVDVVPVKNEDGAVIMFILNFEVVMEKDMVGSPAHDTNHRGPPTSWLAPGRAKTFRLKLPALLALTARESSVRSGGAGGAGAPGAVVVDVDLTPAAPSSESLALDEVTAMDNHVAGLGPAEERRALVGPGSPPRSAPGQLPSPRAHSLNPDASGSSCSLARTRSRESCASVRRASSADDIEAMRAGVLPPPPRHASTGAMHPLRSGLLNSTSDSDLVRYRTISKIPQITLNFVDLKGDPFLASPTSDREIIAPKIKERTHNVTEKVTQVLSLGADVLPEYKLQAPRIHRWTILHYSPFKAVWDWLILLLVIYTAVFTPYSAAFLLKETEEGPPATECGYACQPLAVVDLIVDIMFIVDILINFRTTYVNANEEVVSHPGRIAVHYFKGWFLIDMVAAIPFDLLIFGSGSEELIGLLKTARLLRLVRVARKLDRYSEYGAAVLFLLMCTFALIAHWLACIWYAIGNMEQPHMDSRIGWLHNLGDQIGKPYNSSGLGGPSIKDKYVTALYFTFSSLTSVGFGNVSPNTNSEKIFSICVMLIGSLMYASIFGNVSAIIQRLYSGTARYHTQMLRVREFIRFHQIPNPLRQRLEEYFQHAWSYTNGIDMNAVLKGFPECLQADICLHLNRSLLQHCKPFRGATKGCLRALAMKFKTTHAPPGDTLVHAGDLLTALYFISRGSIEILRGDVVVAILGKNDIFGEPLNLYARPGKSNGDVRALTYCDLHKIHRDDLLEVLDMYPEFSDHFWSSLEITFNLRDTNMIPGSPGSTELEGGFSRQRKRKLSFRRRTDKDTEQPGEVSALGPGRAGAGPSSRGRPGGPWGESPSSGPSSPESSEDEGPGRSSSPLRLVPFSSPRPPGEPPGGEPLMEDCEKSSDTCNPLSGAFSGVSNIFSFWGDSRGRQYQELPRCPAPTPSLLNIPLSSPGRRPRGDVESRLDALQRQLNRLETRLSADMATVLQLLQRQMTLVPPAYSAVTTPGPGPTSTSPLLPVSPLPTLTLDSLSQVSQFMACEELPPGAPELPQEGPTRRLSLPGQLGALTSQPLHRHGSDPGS

Row | Compound | Plasma Stability (% Remain, 2 h) Rat [1] [% Remain] | Metabolic Stability (% Remain, 30 min) Human [2] [% Remain] | Metabolic Stability (% Remain, 30 min) Dog [3] [% Remain] | Metabolic Stability (% Remain, 30 min) Mouse [4] [% Remain] | IC50 [5] [µM] | inhibition at 10 µM [6, 12] [%] | inhibition at 10 µM [7, 13] [%] | Plasma Stability (% Remain, 2 h) Human [8] [% Remain] | Metabolic Stability (% Remain, 30 min) Rat [9] [% Remain] | other results
1 | CC1(C)C=Cc2c(C(=O)OCCCN3CCOCC3)c(O)c3ccccc3c2O1 [6e, 3-Morpholinopropyl 6-hydroxy-2,2-dimethyl-2H-benzo[h]chromene-5-carboxylate] | 94 | 36 | 42 | 24 | > 10 | 40.1 ± 3.5 | 26.6 ± 5.1 | 100 | 16 | –
2 | CN1CCC[C@@H]1COC(=O)c1c2c(c3ccccc3c1O)OC(C)(C)C=C2 [6f, (R)-(1-Methylpyrrolidin-2-yl)methyl 6-hydroxy-2,2-dimethyl-2H-benzo[h]chromene-5-carboxylate] | 99 | 58 | 12 | 11 | > 10 | 48.3 ± 6.2 | 38.2 ± 5.1 | 100 | 13 | –
3 | CN1CCC(OC(=O)c2c3c(c4ccccc4c2O)OC(C)(C)C=C3)CC1 [6g, 1-Methylpiperidin-4-yl 6-hydroxy-2,2-dimethyl-2H-benzo[h]chromene-5-carboxylate] | 100 | 78 | 36 | 14 | > 10 | 54.8 ± 5.2 | 38.9 ± 5 | 100 | 23 | –
4 | CN1CCN(CCOC(=O)c2c3c(c4ccccc4c2O)OC(C)(C)C=C3)CC1 [6h, 2-(4-Methylpiperazin-1-yl)ethyl 6-hydroxy-2,2-dimethyl-2H-benzo[h]chromene-5-carboxylate] | 89 | 76 | 11 | 9 | 3.3 | 42.2 ± 6.4 | 18.2 ± 3.1 | 79 | 23 | IC50 [5, 14]: 3 µM; inhibition of TNF-α-induced monocyte-epithelial adhesion ([6]; 10 μM): good % inhibition; inhibition of IL-6-induced monocyte-epithelial adhesion ([7]; 10 μM): reduced % inhibition
5 | CN1CCN(CCCOC(=O)c2c3c(c4ccccc4c2O)OC(C)(C)C=C3)CC1 [6i, 3-(4-Methylpiperazin-1-yl)propyl 6-hydroxy-2,2-dimethyl-2H-benzo[h]chromene-5-carboxylate] | – | – | – | – | 5.3 | 58.5 ± 6.4 | 27.6 ± 4.2 | – | – | IC50 [5, 14]: 5 µM
6 | COC(=O)c1c2c(c3ccccc3c1O)OC(C)(C)C=C2 [compound 1, mollugin] | 16 | 33 | 33 | 40 | > 10 | 37.8 ± 5.7 | 40.8 ± 6.2 | 92 | 19 | stability in rat plasma [1]: unstable; metabolic stability with dog liver microsomes [3]: generally unstable; metabolic stability with mouse liver microsomes [4]: generally unstable; improved efficacy over mesalazine [10]: at least 1000 fold; metabolic stability with rat liver microsomes [9]: generally unstable
7 | Nc1ccc(O)c(C(=O)O)c1 [compound 2, 5-Aminosalicylic acid, reference compound] | – | – | – | – | – | – | – | – | – | inhibition at 20000 µM ([6]; Homo sapiens, Epithelial cell, at 20 mM, U937 adhesion to HT-29 cells, TNF-α-induced): ~30%; % Inhibition TNF-α ([6]; at 20 mM, U937 adhesion to HT-29 cells, TNF-α-induced, listed as 2 (5-ASA)): 28.8 ± 7.7 (at 20 mM) %; serum SAA level (mSS assay) [11]: 788.86 ng/mL; inhibition at 20000 µM ([7]; Homo sapiens, Epithelial cell, at 20 mM, U937 adhesion to HT-29 cells, IL-6-induced): ~30%; % Inhibition IL-6 ([7]; at 20 mM, U937 adhesion to HT-29 cells, IL-6-induced, listed as 2 (5-ASA)): 32.6 ± 7.3 (at 20 mM) %
